“Also recorded” adds a separate entry of the source.
Legend:
Lcn2 = Lcn2 (Homo sapiens, UniProt P80188); test: Isothermal titration calorimetry of Sulfocalixarene binding to Lcn2; conditions: ITC, 25° C., 20 mM Tris pH 7.4, 50 mM NaCl, single binding site
Protocol: Isothermal Titration Calorimetry (ITC)—Binding of free and bound Sulfocalixarene to Lcn2 was determined by ITC using a Microcal ITC200 microcalorimeter. Experiments were carried out at 25° C. in 20 mM Tris pH 7.4, 50 mM NaCl. The reference cell contained Milli Q water. The concentration of Lcn2 in the reaction cell was 50 μM. The concentration of Sulfocalixarene in the syringe was 500 μM. The titration consisted in 19 successive injections of 4 μL, with a stirring speed of 800 rpm, separated by intervals of 300 s. Data analysis was done with the Origin software assuming a single binding site.
FIG. 7 illustrates a biophysical characterization of the Sulfocalixarene binding to soluble Lcn2. (top). Overlay of ^1H-^15N HSQC spectra for Lcn2 without (red) and with Sulfocalixarene (blue). Changes of cross peak frequencies (positions) indicate residues which are affected upon binding. (bottom) Isothermal titration calorimetry traces of Sulfocalixarene binding to Lcn2. Sulfocalixarene binds to Lcn2 with a KD of about 700 nM.

α-synuclein = α-synuclein (Homo sapiens, UniProt P37840); test: NMR probing of interaction between α-synuclein and Sulfocalixarene, with and without POPG liposomes; assay type: binding
Protocol: POPG was ordered from Avantis Polar Lipids as a stock of 5 mg/ml dissolved in chloroform. The stock solution was aliquotted in glass vials, most chloroform was evaporated under nitrogen flow and the sample was then dried under vacuum for a minimum of 45 min. POPG was dissolved in the desired buffer to 1 mg/ml, kept at RT for 1 hr and subjected to 3 freeze-thaw cycles for complete solvation. The suspension was sonicated in a bath sonicator for 5 min and cycled through an extruder (Avanti® mini-Extruder) equipped with a 0.4 μm membrane for 20 times.
To allow for high concentration measurements, the resulting solution was centrifuged at 200,000×g for 10 min, 75% of the supernatant were discarded and the pellet was resuspended in the remaining 25% yielding a solution of 4 mg/ml POPG. This solution was frozen in aliquots before being used in further measurements. […]
For all NMR-measurements the protein was dialyzed into 20 mM phosphate, pH=7.4, 100 mM NaCl. […] NMR-Spectra were recorded on Varian Direct Drive 600 MHz and Varian Inova 800 MHz spectrometers with 10% D2O as lock solvent. […] Resonance assignment at near physiological conditions was readily available from a previous publication (J. N. Rao, Y. E. Kim, L. S. Park, T. S. Ulmer, Effect of pseudorepeat rearrangement on alpha-synuclein misfolding, vesicle binding, and micelle binding. J Mol Biol 390, 516-529 (2009)) (BMRB ID 16300). […]

[1] = test system: transgenic animal models for Parkinson Disease (PD); test: Immunostaining of cortex in transgenic animal models for Parkinson Disease and healthy controls; assay type: in vivo, mice
Text: FIG. 3: Quantification of the neuronal-immunostaining experiments. Total area, average size and % area are different computational strategies to quantify the number of neurons (however, leading to the same results).
FIG. 4: Immunostaining of astrocytes in healthy (control) and transgenic animals (PD). […] The numbers given for the transgenic animal models are average numbers (and standard deviation) of astrocytes obtained for different animals and cortex regions.
FIG. 6: Quantification of α-synuclein aggregates.

[2] = test system: RA/PMA differentiated SH-SY5Y cells; test: Sulfocalixarene protection against Lcn2/NGAL cytotoxicity; assay type: cell-based; conditions: human differentiated SH-SY5Y neuroblastoma cells
Protocol: (§1) FIG. 11: Sulfocalixarene protection against Lcn2/NGAL cytotoxicity. A. SH-SY5Y RA/PMA differentiated cells were treated for 24 and 48 hours with two lethal concentrations of Lcn2/NGAL (100 μg/ml and 200 μg/ml). Cells were challenged with increasing concentration of Sulfocalixarene and assessed for MTT and phase contrast microscopy analyses. B. SH-SY5Y RA/PMA differentiated cells were treated for 24 and 48 hours with two lethal concentrations of MPP+ (0.5 mM and 10 mM). Cells were challenged with increasing concentration of Sulfocalixarene and assessed for MTT and phase contrast microscopy analyses.
To further study the effect of the compound in neuronal cellular cultures, a cytotoxicity assay was developed using the human Neuroblastoma SH-SY5Y cell line as an in vitro model for dopaminergic neurons. First, it was shown that RA-PMA terminally differentiated SH-SY5Y cells are sensitive to Lcn2/NGAL cytotoxicity in a dose dependent manner. Moreover, in the presence of reactive oxygen species (ROS) triggered by H2O2 the Lcn2/NGAL cytotoxicity is stronger. Second, it could be shown that SH-SY5Y terminally differentiated cells express ˜5× more the Lcn2/NGAL cognate receptor (SLC22A17) on the plasma membrane.

[3] = test system: RA/PMA differentiated SH-SY5Y cells; test: Sulfocalixarene protection against MPP+ and H2O2 cytotoxicity; assay type: cell-based, human; conditions: Sulfocalixarene 500 μM and 100 μM
Protocol: as §1
FIG. 12: Sulfocalixarene protection against MPP+ and H2O2 cytotoxicity. Representative phase-contrast microscope images of RA/PMA differentiated SH-SY5Y cells, scale bar 100 μm.
Furthermore, it was shown that Sulfocalixarene protected against MPP+ (a substrate for the dopamine transporter that is taken up selectively into dopaminergic neurons where it inhibits Complex I of the mitochondrial electron transport chain) and H2O2 stress in human differentiated SH-SY5Y cells. Oxidative stress and mitochondrial damage have been implicated in the pathogenesis of several neurodegenerative diseases.

[4] = test system: transgenic (tg) animals Line 61; test: Pasta Gnawing Test; assay type: in vivo, mice
Protocol: FIG. 13: Pasta Gnawing. The Pasta Gnawing Test is a stress-free behavioral experiment for evaluation of motor deficits in rodents. During the test, the gnawing noises of the animals while eating a piece of dry pasta are recorded. Parameters such as biting speed and number of bites/chewing episode are evaluated.
Data are shown as mean±SEM. Statistics 1-Way-Anova. Statistically significant group differences are indicated with asterisks (for One Way Anova) and hashtag (for t-test); *p<0.05; **p<0.01; #p<0.05.

Sequence of Lcn2 (P80188 21-198): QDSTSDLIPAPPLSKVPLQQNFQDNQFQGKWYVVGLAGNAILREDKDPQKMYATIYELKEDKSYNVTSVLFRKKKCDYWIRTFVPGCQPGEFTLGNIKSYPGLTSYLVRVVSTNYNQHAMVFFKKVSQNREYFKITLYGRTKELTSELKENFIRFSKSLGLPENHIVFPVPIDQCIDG

O=S(=O)(O)c1cc2c(O)c(c1)Cc1cc(S(=O)(=O)O)cc(c1O)Cc1cc(S(=O)(=O)O)cc(c1O)Cc1cc(S(=O)(=O)O)cc(c1O)C2 [Sulfocalixarene, 4-sulfocalix[4]arene]
Kd (Lcn2): ~700 nM
location of binding site on α-synuclein (NMR chemical shift changes) (α-synuclein; monomeric (soluble) α-Synuclein): N-terminal domain of α-synuclein; also recorded: N-terminal part of α-Synuclein; also recorded: N-terminal domain (1-40)
release of α-syn from POPG liposomes (NMR signal intensity ratio) (α-synuclein; α-syn (120 µM) with POPG-liposomes (0.8 mg/ml)): partly releases α-syn from the liposomes
number of astrocytes ([1]; healthy control animals): unaffected
number of neurons in the cortex ([1]; transgenic animal models for PD): increase of the number of neurons in the cortex
pathological α-synuclein aggregates ([1]; transgenic animals (PD)): reduction of pathological α-synuclein aggregates; also recorded: significant reduction of α-synuclein aggregates
number of astrocytes ([1]; transgenic animals (PD), cortex): increase of the number of (presumably neurotrophic quiescent) astrocytes
neuroprotection against Lcn2/NGAL cytotoxicity [2]: has neuroprotection properties against the cytotoxic protein Lcn2/NGAL
cell viability reduction induced by H2O2 [3]: attenuates the reduction of cell viability
cell viability reduction induced by MPP+ [3]: attenuates the reduction of cell viability
bites per episode ([4]; day 28, tg Line 61, versus tg animals treated with vehicle): significant more bites per episode
biting speed ([4]; tg Line 61, versus tg animals treated with vehicle): more biting speed

Source: patent US11179358B2, “Compound for use in the prevention and treatment of neurodegenerative diseases” (Universität Wien, priority 2015, dated 2021)
